Measurements from patent US5087726A, “Carbamate ACAT inhibitors” (Warner-Lambert Company, priority 1990, dated 1992).

Biological target: T1, acyl-CoA:cholesterol acyltransferase (ACAT) (Oryctolagus cuniculus, UniProt G1SFD9)
T1 construct: tissue preparation containing rabbit intestinal microsomes; from tissue; host or cells: rabbit intestinal microsomes
T1 sequence (G1SFD9 1-524): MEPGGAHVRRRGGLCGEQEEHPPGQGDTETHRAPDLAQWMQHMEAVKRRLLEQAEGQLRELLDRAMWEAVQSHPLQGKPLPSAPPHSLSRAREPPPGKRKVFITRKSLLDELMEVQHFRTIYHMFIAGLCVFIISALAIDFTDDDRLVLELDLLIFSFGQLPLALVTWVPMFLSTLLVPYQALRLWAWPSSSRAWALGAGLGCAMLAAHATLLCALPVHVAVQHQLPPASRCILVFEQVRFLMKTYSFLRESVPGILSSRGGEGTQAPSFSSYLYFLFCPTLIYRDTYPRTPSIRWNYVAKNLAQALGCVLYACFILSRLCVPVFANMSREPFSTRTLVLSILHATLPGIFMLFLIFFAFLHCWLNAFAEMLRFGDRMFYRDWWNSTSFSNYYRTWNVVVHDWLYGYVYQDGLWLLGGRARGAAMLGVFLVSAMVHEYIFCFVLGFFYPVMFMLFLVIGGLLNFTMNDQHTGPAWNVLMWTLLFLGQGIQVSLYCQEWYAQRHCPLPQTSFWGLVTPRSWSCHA
Experiment: in vitro ACAT inhibition: radiolabeled cholesterol oleate formed from radiolabeled oleic acid in rabbit intestinal microsomes
Assay type: biochemical
Details: tissue preparation containing rabbit intestinal microsomes; read-out: IC50 value, i.e. the concentration of test compound required to inhibit 50% expression of the enzyme
Method: The ability of representative compounds of the present invention to inhibit ACAT was measured using an in vitro test more fully described in Field, F. J. and Salone, R. G., Biochemica et Biophysica 712: 557-570 (1982). The test assesses the ability of a test compound to inhibit the acylation of cholesterol by oleic acid by measuring the amount of radiolabeled cholesterol oleate formed from radiolabeled oleic acid in a tissue preparation containing rabbit intestinal microsomes.

## CCCCCCCCCCCC(=O)N[C@@H](CNC(=O)Oc1c(C(C)C)cccc1C(C)C)c1ccccc1 [Example 1]
  IC50: 0.51 nM
